According to patent US20090222080A1, “MEDICAL STENT PROVIDED WITH INHIBITORS OF TUMOR NECROSIS FACTOR-ALPHA” (Picarus NV SA, priority 2005, published 2009):

How the values were obtained:
ApoE*3-Leiden mice = experiment: mouse femoral artery cuff model of restenosis (neointima formation); assay type: in vivo; settings: cuff around the femoral artery for 14 days, cuffs loaded with 1% (w/w) thalidomide, p=0.005
From the text: (§1) For the mouse study, ApoE*3-Leiden mice and TNF knockout mice were used to determine the impact of TNF-alpha on restenosis development after cuff placement around the femoral artery for 14 days. In another ApoE*3-Leiden mice group the cuffs were loaded with 1% (w/w) thalidomide, a TNF biosynthesis inhibitor.

TNF protein = experiment: vascular levels of TNF protein after local thalidomide in the mouse cuff model; assay type: in vivo, mice; settings: thalidomide administered locally (cuff)
Experimental: as §1
Furthermore, the vascular levels of TNF protein were decreased when thalidomide was administered locally.

O=C1CCC(N2C(=O)c3ccccc3C2=O)C(=O)N1 (centres unmarked) [thalidomide, 2-(2,6-dioxo-3-piperidinyl)-1H-isoindole-1,3(2H)-dione]
neointima formation (ApoE*3-Leiden mice): significantly less neointima formation | vascular levels of TNF protein (TNF protein): decreased
